{"source": "paper PMC6014988", "about": "“Precision therapeutic targeting of human cancer cell motility” (Nature Communications, 2018)", "tested_on": "CK2", "test": "CK2 in vitro kinase assay", "type": "biochemical", "conditions": "in the presence of CDC37", "text": "CK2 activity. […] If they haven’t, I […]\naffected by KBU2046. Specifically, because of CK2’s known link to S226 we likewise suspected that it could be involved in the mechanism of action. CK2 was indeed included in the LUMIER assay (see\nFig. 6 and Supplementary Fig. 19). We used the LUMIER assay to evaluate whether KBU2046 was altering the binding of client protein kinases to HSP90β/CDC37 heterocomplexes in intact cells, and thereby evaluated hundreds of client protein kinases. In this manner, we observed that KBU2046 did […]\nknown mechanistic link, we also utilized our in vitro system to interrogate purified CK2 and specifically […]\nbelow, and if requested, we are happy to insert these otherwise negative findings into supplementary […]\nCK2 in vitro kinase assay. As described in Figs 6f and g, the ability of recombinant CK2 to phosphorylate serine 226 on HSP90β, in the presence of CDC37, was evaluated +/- KBU2046 (46). Reaction time in minutes\n(Mins) is denoted. KBU2046 had no effect upon serine 226 phosphorylation.\n12. On top of the 8th page of the Results (where the authors discuss data in Fig. 5b-d and in […]\nhydrogen bond formation with Glu33 of Hsp90beta to create formation of a new pocket into which the drug binds. […]\nAdditional comment 1. Figure 4c: if the data are expressed as %VC, should not the VC bar be set at […]", "data": [{"molecule": "O=C1c2ccccc2OCC1c1ccc(F)cc1", "note": "(racemic) [KBU2046, (±)-3(4-fluorophenyl)chroman-4-one]", "values": [{"measurement": "CK2 phosphorylation of S226 on HSP90β", "result": "does not inhibit"}]}]}
